From US12285460B2, “Pharmaceutical compositions” (RHYTHM PHARMACEUTICALS, INC., priority 2013, dated 2025)
Bridge positions count the residues as written; N and C are the ends. Square brackets hold non-standard residues; d marks the D form. Peptide text beside a SMILES is read from it.

Legend:
Format in all cases: cell-based
MC3R = target: T1, MC3R (Homo sapiens, UniProt P41968); assay: cAMP assay (EC50), MC3R; details: EC50(MC3R)/EC50(MC4R)
T1 construct: host or cells: CHO-K1 (ECL assay)
Method: (§1) Stimulation of intracellular cyclic AMP (cAMP) levels by the peptides is determined in a dose dependent manner by an electrochemiluminescence (ECL) assay (Meso Scale Discovery, Gaithersburg, MD, USA; referred to hereinafter as “MSD”). Briefly, the CHO-K1 cells stably expressing the hMC receptor subtypes are suspended in RMPI 1640® assay buffer (RMPI 1640 buffer contains 0.5 mM IBMX, and 0.2% protein cocktail (MSD blocker A)). About 7,000 cells/well of the transgenic CHO-K1 cells stably expressing hMC receptor subtypes 1, 3, 4 or 5 are dispensed in 384-well Multi-Array plates (MSD) containing integrated carbon electrodes and coated with anti-cAMP antibody. Increasing concentrations of the test compounds are added and the cells are incubated for approximately 40 minutes at 37° C. A cell lysis buffer (HEPES-buffered saline solution with MgCl2 and Triton X-100® at pH 7.3) containing 0.2% protein cocktail and 2.5 nM TAG™ ruthenium-labeled cAMP (MSD) is added and the cells are incubated for approximately 90 minutes at room temperature. At the end of the second incubation period, the read buffer (Tris-buffered solution containing an ECL co-reactant and Triton X-100 at pH 7.8) is added and the cAMP levels in the cell lysates are immediately determined by ECL detection with a Sector Imager 6000 Reader® (MSD). Data are analyzed using a computer-assisted non-linear regression analysis (XL fit; IDBS) and reported as either an EC50 value.
(§2) Human MC4-R transfected cells are grown to confluence in 96 well plates (plating approximately 250,000 cells per well). The cells are treated in triplicate sets with 0.2 mM isobutylmethylxanthine (IBMX) and graded concentrations of the peptide or alternatively the peptide in the presence of 20 nM NDP-MSH. Cells similarly treated but with only 20 nM NDP-MSH serve as positive controls in a volume of 200 μL. A buffer blank serving as a negative control is also included. After incubation of one hour at 37° C., the cells are lysed by the addition of 50 μL of a cell lysis buffer. Total cAMP accumulated in 250 μL of this incubation medium is quantitated using a commercially available low pH cAMP assay kit (Amersham BioSciences) as per procedure specified by the kit supplier. […] The data for agonist is plotted and curve fitted to determine the EC50 value. A peptide showing accumulation in the same range as the negative control (buffer blank in the absence of alpha-MSH) is ineffective at the test concentration. A peptide showing attenuated accumulation is considered to be an antagonist if there is inhibition in cAMP when alpha-MSH is also present in the assay. Similar assay can be performed with hMC-1R, hMC-3R, and hMC-5R cells.
(§3) A chemiluminescence readout system that uses an enzyme fragment complementation (EFC) system with β-galactosidase (β-Gal) as the functional reporter system was used. This assay system for various melanocortin receptor systems is commercially available (cAMP Hunter GPCR assay system, Discoverx Corp, Fremont, CA). This assay utilizes the β-Gal enzyme that is split into two complementary portions; EA for Enzyme Acceptor and ED for Enzyme Donor. In the assay, the ED portion fused to cAMP is made to compete with cAMP generated by cells for binding to a cAMP-specific antibody. The EA is then added to form active β-Gal with any unbound ED-cAMP.
(§4) Briefly, 10000 cells per well are plated overnight and each well (cells incubated with 10 μl assay buffer) is then incubated with 4× serial concentration of the test compound in the cell assay buffer (5 μL) and cAMP antibody reagent (5 μL) for 30 min at 37° C. The cell lysis buffer (20 μL) containing ED-cAMP coupled enzyme fragment and the reporter substrate (Emerald II-Galacton Star, 5:1) is then added and incubated for 60 min at room temperature. Next, 20 μL of EA β-Gal fragment reagent is added.

MC1R = target: T2, MC1R (Homo sapiens, UniProt Q01726); assay: cAMP assay (EC50), MC1R; details: EC50(MC1R)/EC50(MC4R)
T2 construct: host or cells: CHO-K1 (ECL assay)
Method: as §1, §2, §3, §4

MC5R = target: T3, MC5R (Homo sapiens, UniProt P33032); assay: cAMP assay (EC50), MC5R; details: EC50(MC5R)/EC50(MC4R)
T3 construct: host or cells: CHO-K1 (ECL assay)
Method: Stimulation of intracellular cyclic AMP (cAMP) levels by the peptides is determined in a dose dependent manner by an electrochemiluminescence (ECL) assay (Meso Scale Discovery, Gaithersburg, MD, USA; referred to hereinafter as “MSD”). Briefly, the CHO-K1 cells stably expressing the hMC receptor subtypes are suspended in RMPI 1640® assay buffer (RMPI 1640 buffer contains 0.5 mM IBMX, and 0.2% protein cocktail (MSD blocker A)). About 7,000 cells/well of the transgenic CHO-K1 cells stably expressing hMC receptor subtypes 1, 3, 4 or 5 are dispensed in 384-well Multi-Array plates (MSD) containing integrated carbon electrodes and coated with anti-cAMP antibody. Increasing concentrations of the test compounds are added and the cells are incubated for approximately 40 minutes at 37° C. A cell lysis buffer (HEPES-buffered saline solution with MgCl2 and Triton X-100® at pH 7.3) containing 0.2% protein cocktail and 2.5 nM TAG™ ruthenium-labeled cAMP (MSD) is added and the cells are incubated for approximately 90 minutes at room temperature. At the end of the second incubation period, the read buffer (Tris-buffered solution containing an ECL co-reactant and Triton X-100 at pH 7.8) is added and the cAMP levels in the cell lysates are immediately determined by ECL detection with a Sector Imager 6000 Reader® (MSD). Data are analyzed using a computer-assisted non-linear regression analysis (XL fit; IDBS) and reported as either an EC50 value. […]
as §3, with “ED-cAMP. This active enzyme then converts a chemiluminescent substrate to generate an output signal that is recorded on a standard microplate reader.” for “ED-cAMP.”
as §4

T3 sequence (P33032 whole entry): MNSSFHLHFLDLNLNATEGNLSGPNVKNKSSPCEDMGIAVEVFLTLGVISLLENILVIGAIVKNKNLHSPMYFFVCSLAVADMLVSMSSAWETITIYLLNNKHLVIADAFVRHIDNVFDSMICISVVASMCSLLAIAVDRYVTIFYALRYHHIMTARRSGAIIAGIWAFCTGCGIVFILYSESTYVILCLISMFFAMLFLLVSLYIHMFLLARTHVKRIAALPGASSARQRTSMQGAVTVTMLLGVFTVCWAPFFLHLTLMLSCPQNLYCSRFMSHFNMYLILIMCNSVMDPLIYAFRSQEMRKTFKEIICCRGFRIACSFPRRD
T1 sequence (P41968 whole entry): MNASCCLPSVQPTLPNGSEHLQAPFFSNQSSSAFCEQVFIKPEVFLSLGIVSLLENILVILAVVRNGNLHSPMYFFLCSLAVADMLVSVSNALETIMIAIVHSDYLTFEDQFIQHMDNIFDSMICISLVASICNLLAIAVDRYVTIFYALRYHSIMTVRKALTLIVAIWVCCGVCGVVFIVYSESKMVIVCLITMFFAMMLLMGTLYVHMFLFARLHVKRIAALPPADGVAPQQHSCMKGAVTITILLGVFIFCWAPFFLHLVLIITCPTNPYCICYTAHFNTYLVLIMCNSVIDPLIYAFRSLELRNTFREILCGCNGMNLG
T2 sequence (Q01726 whole entry): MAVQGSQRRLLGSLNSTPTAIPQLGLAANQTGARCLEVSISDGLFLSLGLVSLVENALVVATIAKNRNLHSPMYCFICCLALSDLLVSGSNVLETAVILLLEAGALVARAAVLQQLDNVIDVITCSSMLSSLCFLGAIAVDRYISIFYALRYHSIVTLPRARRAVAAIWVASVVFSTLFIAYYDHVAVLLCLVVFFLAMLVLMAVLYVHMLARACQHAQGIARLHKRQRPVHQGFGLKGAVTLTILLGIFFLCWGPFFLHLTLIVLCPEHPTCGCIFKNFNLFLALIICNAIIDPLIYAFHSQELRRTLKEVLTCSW

Row | SMILES | Ratios of EC50 values MC3/4 (MC3R) | Ratios of EC50 values MC1/4 (MC1R) | Ratios of EC50 values MC5/4 (MC5R)
1 | CC(=O)N[C@@H](CCCNC(=N)N)C(=O)N[C@H]1CSSC[C@@H](C(N)=O)NC(=O)[C@H](Cc2c[nH]c3ccccc23)NC(=O)[C@H](CCCNC(=N)N)NC(=O)[C@@H](Cc2ccccc2)NC(=O)[C@H](Cc2c[nH]cn2)NC(=O)[C@@H](CC(C)C)NC1=O [Compound 1, Ac-Arg-cyclo[Cys-D-Leu-His-D-Phe-Arg-Trp-Cys]-NH2] | 1.13 | 0.68 | 130
2 | CC[C@@H](C)[C@H]1NC(=O)[C@@H](NC(=O)[C@H](CCCNC(=N)N)NC(C)=O)CSSC[C@@H](C(N)=O)NC(=O)[C@H](Cc2c[nH]c3ccccc23)NC(=O)[C@H](CCCNC(=N)N)NC(=O)[C@@H](Cc2ccccc2)NC(=O)[C@H](Cc2c[nH]cn2)NC1=O [Compound 2, Ac-Arg-cyclo[Cys-D-Ile-His-D-Phe-Arg-Trp-Cys]-NH2] | 0.96 | 0.69 | 420
3 | CC(=O)N[C@@H](CCCNC(=N)N)C(=O)N[C@H]1CSSC[C@@H](C(N)=O)NC(=O)[C@H](Cc2c[nH]c3ccccc23)NC(=O)[C@H](CCCNC(=N)N)NC(=O)[C@@H](Cc2ccccc2)NC(=O)[C@H](Cc2c[nH]cn2)NC(=O)[C@@H](C(C)(C)C)NC1=O [Compound 3, Ac-Arg-cyclo[Cys-D-Tie-His-D-Phe-Arg-Trp-Cys]-NH2] | 1 | 1 | 930
4 | CC(=O)N[C@@H](CCCNC(=N)N)C(=O)N[C@H]1CSSC[C@@H](C(N)=O)NC(=O)[C@H](Cc2c[nH]c3ccccc23)NC(=O)[C@H](CCCNC(=N)N)NC(=O)[C@@H](Cc2ccccc2)NC(=O)[C@H](Cc2c[nH]cn2)NC(=O)[C@@H](C(C)C)NC1=O [Compound 4, Ac-Arg-cyclo[Cys-D-Val-His-D-Phe-Arg-Trp-Cys]-NH2] | 1.19 | 0.93 | 584
5 | CC(=O)N[C@@H](CCCNC(=N)N)C(=O)N[C@H]1CSSC[C@@H](C(N)=O)NC(=O)[C@H](Cc2c[nH]c3ccccc23)NC(=O)[C@H](CCCNC(=N)N)NC(=O)[C@@H](Cc2ccccc2)NC(=O)[C@H](Cc2cncn2C)NC(=O)[C@@H](C)NC1=O [Compound 5, Ac-Arg-cyclo[Cys-D-Ala-His(3-Me)-D-Phe-Arg-Trp-Cys]-NH2] | 350 | 4 | 945
6 | CC(=O)N[C@@H](CCCNC(=N)N)C(=O)N[C@H]1CSSC[C@@H](C(N)=O)NC(=O)[C@H](Cc2c[nH]c3ccccc23)NC(=O)[C@H](CCCNC(=N)N)NC(=O)[C@@H](Cc2ccccc2)NC(=O)[C@H](Cc2cn(C)cn2)NC(=O)[C@@H](C)NC1=O [Compound 6, Ac-Arg-cyclo[Cys-D-Ala-His(1-Me)-D-Phe-Arg-Trp-Cys]-NH2] | 6 | 40 | 662
7 | CC(=O)N[C@@H](CCCNC(=N)N)C(=O)N[C@H]1CSSC[C@@H](C(N)=O)NC(=O)[C@H](Cc2c[nH]c3ccccc23)NC(=O)[C@H](CCCNC(=N)N)NC(=O)[C@@H](Cc2ccccc2)NC(=O)[C@H](Cc2c[nH]c3ccccc23)NC(=O)[C@@H](C)NC1=O [Compound 7, Ac-Arg-cyclo[Cys-D-Ala-Trp-D-Phe-Arg-Trp-Cys]-NH2] (Ac-RC[dA]W[dF]RWC-NH2; disulfide 2-8) | >290 | 8 | 7
8 | CC(=O)N[C@@H](CCCNC(=N)N)C(=O)N[C@H]1CSSC[C@@H](C(N)=O)NC(=O)[C@H](Cc2c[nH]c3ccccc23)NC(=O)[C@H](CCCNC(=N)N)NC(=O)[C@@H](Cc2ccccc2)NC(=O)[C@H](CCC(N)=O)NC(=O)[C@@H](C)NC1=O [Compound 8, Ac-Arg-cyclo[Cys-D-Ala-Gln-D-Phe-Arg-Trp-Cys]-NH2] (Ac-RC[dA]Q[dF]RWC-NH2; disulfide 2-8) | 5 | 40 | 155
9 | CC(=O)N[C@@H](CCCNC(=N)N)C(=O)N[C@H]1CSSC[C@@H](C(N)=O)NC(=O)[C@H](Cc2c[nH]c3ccccc23)NC(=O)[C@H](CCCNC(=N)N)NC(=O)[C@@H](Cc2ccccc2)NC(=O)[C@H](CC(N)=O)NC(=O)[C@@H](C)NC1=O [Compound 9, Ac-Arg-cyclo[Cys-D-Ala-Asn-D-Phe-Arg-Trp-Cys]-NH2] (Ac-RC[dA]N[dF]RWC-NH2; disulfide 2-8) | 30 | 90 | 530
10 | CC(=O)N[C@@H](CCCNC(=N)N)C(=O)N[C@H]1CSSC[C@@H](C(N)=O)NC(=O)[C@H](Cc2c[nH]c3ccccc23)NC(=O)[C@H](CCCNC(=N)N)NC(=O)[C@@H](Cc2ccccc2)NC(=O)[C@H](CCCNC(=N)N)NC(=O)[C@@H](C)NC1=O [Compound 10, Ac-Arg-cyclo[Cys-D-Ala-Arg-D-Phe-Arg-Trp-Cys]-NH2] (Ac-RC[dA]R[dF]RWC-NH2; disulfide 2-8) | 1.45 | 2.31 | –
11 | CC(=O)N[C@@H](CCCNC(=N)N)C(=O)N[C@H]1CSSC[C@@H](C(N)=O)NC(=O)[C@H](Cc2c[nH]c3ccccc23)NC(=O)[C@H](CCCNC(=N)N)NC(=O)[C@@H](Cc2ccccc2)NC(=O)[C@H](Cc2ccc(O)cc2)NC(=O)[C@@H](C)NC1=O [Compound 11, Ac-Arg-cyclo[Cys-D-Ala-Tyr-D-Phe-Arg-Trp-Cys]-NH2] (Ac-RC[dA]Y[dF]RWC-NH2; disulfide 2-8) | >22.2 | 6.67 | –
12 | CC(=O)N[C@@H](CCCNC(=N)N)C(=O)N[C@H]1CSSC[C@@H](C(N)=O)NC(=O)[C@H](Cc2c[nH]c3ccccc23)NC(=O)[C@H](CCCNC(=N)N)NC(=O)[C@@H](Cc2ccccc2)NC(=O)[C@@H]2CCCN2C(=O)[C@@H](C)NC1=O [Compound 13, Ac-Arg-cyclo[Cys-D-Ala-Pro-D-Phe-Arg-Trp-Cys]-NH2] (Ac-RC[dA]P[dF]RWC-NH2; disulfide 2-8) | >200 | 5 | 13
